According to patent US9650366B2, “Heterocycle-substituted pyridyl benzothiophenes as kinase inhibitors” (Allergan, Inc., priority 2014, dated 2017):

Key:
Format in all cases: biochemical
human GST-PKR = human GST-PKR (Homo sapiens (Human), UniProt P19525); assay: PKR KinaseGlo Assay; conditions: recombinant human GST-PKR, 6.6 uM ATP
Procedure: Commercially available recombinant human GST-PKR (SignalChem, Canada; 1.5 uM-2 uM stock) is diluted to 500 nM in assay buffer (20 mM Tris-HCl, pH 7.2, 10 mM KCl, 10 mM MgCl2, 10% glycerol). Preactivated PKR is dispensed to 384/96-well black plates at 3.125/12.5 uls/well using the liquid handler Janus. Appropriate dilutions of inhibitors are added to 384/96-well plate followed by 6.6 uM ATP (final) and incubated for 10 minutes at room temperature. The remaining ATP/well is determined by adding 6.25/25 uls/well Kinase-Glo assay mix (Promega) and luminescence is measured on EnVision luminescence plate reader (integration time, 0.2 sec; Perkin-Elmer, Massachusetts, USA). The % inhibition for the compounds is calculated using ATP only (100% inhibition) and PKR+ATP (0% inhibition). IC50 values are determined by plotting % activity versus inhibitor concentration. Curves are fitted using Activity base XLfit (IDBS, UK) using the formula—
4 Parameter Logistic Model
fit=(A+((B−A)/(1+(10^((C−x)*D))))) inv=(C−(log(((B−A)/(y−A))−1)/D)) res=(y−fit)

VEGFR2 (KDR) = VEGFR2 (KDR) (Homo sapiens (Human), UniProt P35968); assay: VEGFR2 Kinase Assay; conditions: purified cytoplasmic domain KDR protein, 2.7 μM ATP
Chain of VEGFR2 (KDR) (P35968 786-1356): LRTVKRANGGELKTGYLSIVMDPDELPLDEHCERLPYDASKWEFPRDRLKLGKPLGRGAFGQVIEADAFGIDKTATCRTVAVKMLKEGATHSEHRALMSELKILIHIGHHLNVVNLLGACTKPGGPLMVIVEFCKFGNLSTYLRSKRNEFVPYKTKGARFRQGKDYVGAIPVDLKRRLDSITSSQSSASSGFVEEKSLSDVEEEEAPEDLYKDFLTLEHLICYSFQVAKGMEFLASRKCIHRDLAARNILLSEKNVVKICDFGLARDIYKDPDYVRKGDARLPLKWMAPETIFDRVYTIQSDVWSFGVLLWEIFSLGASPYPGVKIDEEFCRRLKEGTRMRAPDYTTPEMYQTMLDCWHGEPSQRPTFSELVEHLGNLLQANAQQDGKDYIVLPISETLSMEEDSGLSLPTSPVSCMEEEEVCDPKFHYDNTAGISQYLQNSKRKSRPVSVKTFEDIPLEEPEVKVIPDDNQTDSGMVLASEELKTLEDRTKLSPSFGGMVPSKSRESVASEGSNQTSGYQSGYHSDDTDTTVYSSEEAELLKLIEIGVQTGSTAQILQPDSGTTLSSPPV
Procedure: Biochemical KDR kinase assays were performed in 96 well microtiter plates that were coated overnight with 75 μg/well of poly-Glu-Tyr (4:1) in 10 mM Phosphate Buffered Saline (PBS), pH 7.4. The coated plates were washed with 2 mls per well PBS+0.05% Tween-20 (PBS-T), blocked by incubation with PBS containing 1% BSA, then washed with 2 mls per well PBS-T prior to starting the reaction. Reactions were carried out in 100 μL reaction volumes containing 2.7 μM ATP in kinase buffer (50 mM Hepes buffer pH 7.4, 20 mM MgCl2, 0.1 mM MnCl2 and 0.2 mM Na3VO4). Test compounds were reconstituted in 100% DMSO and added to the reaction to give a final DMSO concentration of 5%. Reactions were initiated by the addition 20 ul per well of kinase buffer containing 200-300 ng purified cytoplasmic domain KDR protein (BPS Bioscience, San Diego, Calif.). Following a 15 minute incubation at 30° C., the reactions were washed 2 mls per well PBS-T. 100 μl of a monoclonal anti-phosphotyrosine antibody-peroxidase conjugate diluted 1:10,000 in PBS-T was added to the wells for 30 minutes. Following a 2 mls per well wash with PBS-Tween-20, 100 μl of 0-Phenylenediamine Dihydrochloride in phosphate-citrate buffer, containing urea hydrogen peroxide, was added to the wells for 7-10 minutes as a colorimetric substrate for the peroxidase. The reaction was terminated by the addition of 100 μl of 2.5N H2SO4 to each well and read using a microplate ELISA reader set at 492 nm. IC50 values for compound inhibition were calculated directly from graphs of optical density (arbitrary units) versus compound concentration following subtraction of blank values.

PDGFRβ = PDGFRβ (Homo sapiens (Human), UniProt P09619); assay: PDGFRβ Kinase Assay; conditions: purified cytoplasmic domain PDGFR-b protein, 36 μM ATP
Chain of PDGFRβ (P09619 554-1106): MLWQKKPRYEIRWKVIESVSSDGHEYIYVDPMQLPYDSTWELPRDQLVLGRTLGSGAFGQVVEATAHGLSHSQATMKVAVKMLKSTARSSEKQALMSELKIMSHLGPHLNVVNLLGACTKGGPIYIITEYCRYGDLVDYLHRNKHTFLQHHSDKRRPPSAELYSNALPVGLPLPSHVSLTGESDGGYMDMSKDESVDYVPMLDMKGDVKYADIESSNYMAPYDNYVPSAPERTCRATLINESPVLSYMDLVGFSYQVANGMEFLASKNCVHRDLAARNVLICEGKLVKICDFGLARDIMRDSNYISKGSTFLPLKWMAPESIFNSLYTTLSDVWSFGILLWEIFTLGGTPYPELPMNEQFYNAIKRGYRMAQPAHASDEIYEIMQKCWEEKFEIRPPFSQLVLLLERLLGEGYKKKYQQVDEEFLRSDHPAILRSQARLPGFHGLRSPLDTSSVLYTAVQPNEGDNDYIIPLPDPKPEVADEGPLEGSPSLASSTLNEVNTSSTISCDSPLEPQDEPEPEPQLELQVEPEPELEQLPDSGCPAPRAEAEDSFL
Procedure: Biochemical PDGFRβ kinase assays were performed in 96 well microtiter plates that were coated overnight with 75 μg of poly-Glu-Tyr (4:1) in 10 mM Phosphate Buffered Saline (PBS), pH 7.4. The coated plates were washed with 2 mls per well PBS+0.05% Tween-20 (PBS-T), blocked by incubation with PBS containing 1% BSA, then washed with 2 mls per well PBS-T prior to starting the reaction. Reactions were carried out in 100 μL reaction volumes containing 36 μM ATP in kinase buffer (50 mM Hepes buffer pH 7.4, 20 mM MgCl2, 0.1 mM MnCl2 and 0.2 mM Na3VO4). Test compounds were reconstituted in 100% DMSO and added to the reaction to give a final DMSO concentration of 5%. Reactions were initiated by the addition 20 ul per well of kinase buffer containing 200-300 ng purified cytoplasmic domain PDGFR-b protein (Millipore). Following a 60 minute incubation at 30° C., the reactions were washed 2 mls per well PBS-T. 100 μl of a monoclonal anti-phosphotyrosine antibody-peroxidase conjugate diluted 1:10,000 in PBS-T was added to the wells for 30 minutes. […] The reaction was terminated by the addition of 100 μl of 2.5N H2SO4 to each well and read using a microplate ELISA reader set at 492 nm. IC50 values for compound inhibition were calculated directly from graphs of optical density (arbitrary units) versus compound concentration following subtraction of blank values.

Chain of human GST-PKR (P19525 whole entry): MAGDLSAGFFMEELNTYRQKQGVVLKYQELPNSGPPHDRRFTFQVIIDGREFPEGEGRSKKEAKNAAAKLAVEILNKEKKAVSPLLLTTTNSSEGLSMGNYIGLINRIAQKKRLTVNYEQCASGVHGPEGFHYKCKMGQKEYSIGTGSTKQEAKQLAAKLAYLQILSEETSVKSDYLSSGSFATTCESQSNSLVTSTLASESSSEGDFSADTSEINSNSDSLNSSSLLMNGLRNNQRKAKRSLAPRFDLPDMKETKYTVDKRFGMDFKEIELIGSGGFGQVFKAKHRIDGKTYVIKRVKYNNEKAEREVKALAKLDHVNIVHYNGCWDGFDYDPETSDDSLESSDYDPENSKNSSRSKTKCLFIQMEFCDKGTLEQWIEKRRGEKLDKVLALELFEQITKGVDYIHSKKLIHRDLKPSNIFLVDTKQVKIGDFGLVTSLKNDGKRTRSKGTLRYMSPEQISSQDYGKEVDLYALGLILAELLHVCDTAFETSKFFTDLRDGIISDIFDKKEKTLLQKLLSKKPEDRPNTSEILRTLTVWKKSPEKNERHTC

IC50 (human GST-PKR) [nM]	IC50 (VEGFR2 (KDR)) [nM]	IC50 (PDGFRβ) [nM]	SMILES
558	–	–	Nc1ncc(-c2ncccn2)cc1-c1cc2cc(NC(=O)Nc3ccc(Cl)c(C(F)(F)F)c3)ccc2s1 [Example 13, 1-[2-(2-amino-5-pyrimidin-2-ylpyridin-3-yl)-1-benzothien-5-yl]-3-[4-chloro-3-(trifluoromethyl)phenyl]urea]
> 10000	5	21	Cc1ccoc1C(=O)Nc1cccc(C#Cc2cncc(-c3nnn(CCCO)n3)c2)c1 [Example 9, N-[3-({5-[2-(3-hydroxypropyl)-2H-tetrazol-5-yl]pyridin-3-yl}ethynyl)phenyl]-3-methyl-2-furamide]
39	–	–	Nc1ncc(-c2nnn(CCCO)n2)cc1-c1cc2cc(NC(=O)Nc3ccc(Cl)c(C(F)(F)F)c3)ccc2s1 [Example 3, 1-(2-{2-amino-5-[2-(3-hydroxypropyl)-2H-tetrazol-5-yl]pyridin-3-yl}-1-benzothien-5-yl)-3-[4-chloro-3-(trifluoromethyl)phenyl]urea]
66	–	–	Nc1ncc(-c2nnn(CCCO)n2)cc1-c1cc2cc(NC(=O)Nc3cc(C(F)(F)F)cc(C(F)(F)F)c3)ccc2s1 [Example 6, 1-(2-{2-amino-5-[2-(3-hydroxypropyl)-2H-tetrazol-5-yl]pyridin-3-yl}-1-benzothien-5-yl)-3-[3,5-bis(trifluoromethyl)phenyl]urea]
140	–	–	Nc1ncc(-c2nn[nH]n2)cc1-c1cc2cc(NC(=O)Nc3ccc(Cl)c(C(F)(F)F)c3)ccc2s1 [Example 2, 1-{2-[2-amino-5-(2H-tetrazol-5-yl)pyridin-3-yl]-1-benzothien-5-yl}-3-[4-chloro-3-(trifluoromethyl)phenyl]urea]
–	7	–	Cc1cccc(C(=O)Nc2cccc(C#Cc3cncc(-c4nnn(CCCO)n4)c3)c2)c1 [Example 10, N-[3-({5-[2-(3-hydroxypropyl)-2H-tetrazol-5-yl]pyridin-3-yl}ethynyl)phenyl]-3-methylbenzamide]
158	–	–	Nc1ncc(-c2nnn(CCCO)n2)cc1C#Cc1cccc(NC(=O)Nc2ccc(Cl)c(C(F)(F)F)c2)c1 [Example 11, 1-[3-({2-amino-5-[2-(3-hydroxypropyl)-2H-tetrazol-5-yl]pyridin-3-yl}ethynyl)phenyl]-3-[4-chloro-3-(trifluoromethyl)phenyl]urea]
727	–	–	O=C(Nc1ccc(Cl)c(C(F)(F)F)c1)Nc1ccc2sc(-c3cncc(-c4nn[nH]n4)c3)cc2c1 [Example 1, 1-[4-chloro-3-(trifluoromethyl)phenyl]-3-{2-[5-(2H-tetrazol-5-yl)pyridin-3-yl]-1-benzothien-5-yl}urea]
99	–	–	Nc1ncc(-c2nnn(CCCO)n2)cc1-c1cc2cc(NC(=O)Nc3ccc(F)c(C(F)(F)F)c3)ccc2s1 [Example 4, 1-(2-{2-amino-5-[2-(3-hydroxypropyl)-2H-tetrazol-5-yl]pyridin-3-yl}-1-benzothien-5-yl)-3-[4-fluoro-3-(trifluoromethyl)phenyl]urea]
76	–	–	Nc1ncc(-c2nnn(CCCO)n2)cc1-c1cc2cc(NC(=O)Nc3cc(F)cc(C(F)(F)F)c3)ccc2s1 [Example 5, 1-(2-{2-amino-5-[2-(3-hydroxypropyl)-2H-tetrazol-5-yl]pyridin-3-yl}-1-benzothien-5-yl)-3-[3-fluoro-5-(trifluoromethyl)phenyl]urea]
> 10000	8	–	O=C(Nc1ccc(C#Cc2cncc(-c3nnn(CCCO)n3)c2)cc1)Nc1cc(C(F)(F)F)ccc1F [Example 12, 1-[2-fluoro-5-(trifluoromethyl)phenyl]-3-[4-({5-[2-(3-hydroxypropyl)-2H-tetrazol-5-yl]pyridin-3-yl}ethynyl)phenyl]urea]
301	–	–	Nc1ncc(-c2cnccn2)cc1-c1cc2cc(NC(=O)Nc3ccc(Cl)c(C(F)(F)F)c3)ccc2s1 [Example 14, 1-[2-(2-amino-5-pyrazin-2-ylpyridin-3-yl)-1-benzothien-5-yl]-3-[4-chloro-3-(trifluoromethyl)phenyl]urea]
82	–	–	Nc1ncc(-c2nnn(CCO)n2)cc1-c1cc2cc(NC(=O)Nc3ccc(Cl)c(C(F)(F)F)c3)ccc2s1 [Example 8, 1-(2-{2-amino-5-[2-(2-hydroxyethyl)-2H-tetrazol-5-yl]pyridin-3-yl}-1-benzothien-5-yl)-3-[4-chloro-3-(trifluoromethyl)phenyl]urea]
